For data set [1], the target named is T1, recombinant human-MT1 receptor (Homo sapiens, UniProt P48039).
T1 construct: expressed in transfected cells; host or cells: unnamed cell line co-expressing mitochondrial apoaequorin and Gα16
Description: In vitro MT1 screening (AequoScreen aequorin luminescence, agonism). In kind it is cell-based. The settings on record: percentage of activity relative to the reference agonist at the EC100 concentration. The source says:
To proceed with compound screening over MT1 receptor, a cell line characterised by a stable overexpression of recombinant human-MT1 receptor was used. This line co-expresses mitochondrial apoaequorin and subunit Gα16.
Subunit Gα16 belongs to GPCR superfamily, in which intracellular signal transduction is produced via phospholipase (PLC). Activation of PLC produces an increment of inositol-triphosphate levels and intracellular calcium levels. This increment in calcium levels is, therefore, independent and full compatible with the signal transduction of MT1 receptor.
After binding to calcium, aequorin carries out the oxidation of colenterazine to colenteramide, a luminescent reaction.
Assay protocol for agonist screening consists in an overnight incubation of cells and colenterazine, being performed by an AequoScreen™ system instrument, PerkinElmer, USA. After that this mixture was injected over a plate that contains the solution of the compounds to screen and luminescence was immediately read. Only in case of antagonism screening, after 15-30 min of the first injection the reference agonist was added in the same well, and then luminescence was measured.
Agonist activity was calculated as percentage of activity relative to the reference agonist at the EC100 concentration.

A short description of data set [2]: Plasma drug levels after oral administration. In kind it is in vivo. As to conditions: male Sprague-Dawley rats; for Ratio 15/60 (plasma level 15 min / 60 min): oral 3 mg/kg; for concentration at 15 min / concentration at 60 min: rat, plasma; for concentration at 15 min: 15 min after oral administration of 3 mg/kg; for concentration at 60 min: 60 min after oral administration of 3 mg/kg. The method, then: The compounds of formula I show the surprising advantage of being maintained at more sustained plasma levels and thus being long acting. This can be evidenced, for instance, by measuring the plasma levels after oral administration to rats at 15 and 60 min after oral administration, resulting in lower ratio values for the compounds of the present invention. Thus the compounds of formula I, characterized in that R2 is an alkyl radical show more sustained plasma levels than prior art compounds (EP1189900B1), wherein R2 is hydrogen. […] Consequently, the present compounds allow for a more efficient therapy: the slow elimination facilitates maintaining a stable plasma concentration at a non-toxic, effective level and the prolonged effect may be expected to result in better compliance of the subject to be treated with the prescribed medication.

T1 sequence (P48039 whole entry): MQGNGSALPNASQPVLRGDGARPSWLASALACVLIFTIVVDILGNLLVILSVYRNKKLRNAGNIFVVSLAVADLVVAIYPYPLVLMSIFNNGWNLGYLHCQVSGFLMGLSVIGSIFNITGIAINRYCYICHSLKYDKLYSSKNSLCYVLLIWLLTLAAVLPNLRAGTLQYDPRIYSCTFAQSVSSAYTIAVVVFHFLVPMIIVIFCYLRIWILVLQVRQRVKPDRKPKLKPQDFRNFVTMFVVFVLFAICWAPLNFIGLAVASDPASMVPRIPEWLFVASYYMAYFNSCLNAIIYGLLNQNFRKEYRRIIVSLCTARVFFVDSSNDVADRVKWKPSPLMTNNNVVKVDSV

Consider `CCC(=O)N[C@H]1CCN(c2ccc(F)c3c2CC(C)O3)C1` (stereo partly drawn) [Example 3, N-((3S)-1-(7-fluoro-2-methyl-2,3-dihydrobenzofuran-4-yl)pyrrolidin-3-yl)propionamide], for which the activation at 0.001 µM in data set [1] (1 nM compound) was 30%. In data set [1] (100 nM compound), the activation at 0.1 µM was found to be 88%. In addition, in data set [2], the “Ratio 15/60 (plasma level 15 min / 60 min)” value was 1.74, the concentration at 15 min was 113 ng/mL and the concentration at 60 min stood at 64.9 ng/mL.
In the case of `CC1Cc2c(cccc2N2CC[C@H](NC(=O)C(F)(F)F)C2)O1` (stereo partly drawn) [Example 14, 2,2,2-trifluoro-N-((3S)-1-(2-methyl-2,3-dihydrobenzofuran-4-yl)pyrrolidin-3-yl)acetamide], in data set [1] (1 nM compound), the activation at 0.001 µM stood at 8%. Also, the activation at 0.1 µM in data set [1] (100 nM compound) is 79%.
As for `CCC(=O)N[C@H]1CCN(c2cccc3c2CC(CC)O3)C1` (stereo partly drawn) [Example 20, N-((3S)-1-(2-ethyl-2,3-dihydrobenzofuran-4-yl)pyrrolidin-3-yl)propionamide], the activation at 0.001 µM in data set [1] (1 nM compound) was 26%. Besides, the activation at 0.1 µM in data set [1] (100 nM compound) was 88%. In data set [2], the “Ratio 15/60 (plasma level 15 min / 60 min)” value turned out to be 1.80, the concentration at 15 min was found to be 106 ng/mL and the concentration at 60 min worked out at 59 ng/mL.
`CCC1Cc2c(cccc2N2CC[C@H](NC(C)=O)C2)O1` (stereo partly drawn) [Example 19, N-((3S)-1-(2-ethyl-2,3-dihydrobenzofuran-4-yl)pyrrolidin-3-yl)acetamide]: the activation at 0.001 µM in data set [1] (1 nM compound) turned out to be 23%. For the same compound, in data set [1] (100 nM compound), the activation at 0.1 µM is 81%.
For `CCCCC(=O)N[C@H]1CCN(c2ccc(F)c3c2CC(C)O3)C1` (stereo partly drawn) [Example 8, N-((3S)-1-(7-fluoro-2-methyl-2,3-dihydrobenzofuran-4-yl)pyrrolidin-3-yl)pentanamide], the activation at 0.001 µM in data set [1] (1 nM compound) came to 31%. In addition, the activation at 0.1 µM in data set [1] (100 nM compound) stood at 89%.
With `CCCC1Cc2c(cccc2N2CC[C@H](NC(=O)CC)C2)O1` (stereo partly drawn) [Example 21, N-((3S)-1-(2-propyl-2,3-dihydrobenzofuran-4-yl)pyrrolidin-3-yl)propionamide], in data set [1] (1 nM compound), the activation at 0.001 µM amounted to 15%. Also, in data set [1] (100 nM compound), the activation at 0.1 µM was determined as 78%. In data set [2], the “Ratio 15/60 (plasma level 15 min / 60 min)” value is given as 1.59, the concentration at 15 min was determined as 59 ng/mL and the concentration at 60 min was 37 ng/mL.
As to `CCC(C)C(=O)N[C@H]1CCN(c2ccc(F)c3c2CC(C)O3)C1` (stereo partly drawn) [Example 9, N-((3S)-1-(7-fluoro-2-methyl-2,3-dihydrobenzofuran-4-yl)pyrrolidin-3-yl)-2-methylbutanamide], in data set [1] (1 nM compound), the activation at 0.001 µM was found to be 17%. Further, the activation at 0.1 µM in data set [1] (100 nM compound) turned out to be 70%.
The matching figures for `CC1Cc2c(N3CC[C@H](NC(=O)C(C)C)C3)ccc(F)c2O1` (stereo partly drawn) [Example 6, N-((3S)-1-(7-fluoro-2-methyl-2,3-dihydrobenzofuran-4-yl)pyrrolidin-3-yl)isobutyramide]: 24% and 75%.
As for `CC1Cc2c(N3CC[C@H](NC(=O)C(C)F)C3)ccc(F)c2O1` (stereo partly drawn) [Example 4, 2-fluoro-N-((3S)-1-(7-fluoro-2-methyl-2,3-dihydrobenzofuran-4-yl)pyrrolidin-3-yl)propanamide], the activation at 0.001 µM in data set [1] (1 nM compound) was 44%. The activation at 0.1 µM in data set [1] (100 nM compound) turned out to be 98%.
With `CCC(=O)N[C@H]1CCN(c2cccc3c2CC(C)O3)C1` (stereo partly drawn) [Example 15, N-((3S)-1-(2-methyl-2,3-dihydrobenzofuran-4-yl)pyrrolidin-3-yl)propionamide], in data set [1] (1 nM compound), the activation at 0.001 µM came out at 18%. Besides, the activation at 0.1 µM in data set [1] (100 nM compound) stood at 92%.
`CCC(=O)NCC[C@@H]1CCc2ccc3c(c21)CCO3` [Ramelteon, N-[2-[(8S)-1,6,7,8-tetrahydro-2H-indeno[5,4-b]furan-8-yl)ethyl]propionamide, reference compound]: in data set [1] (1 nM compound), the activation at 0.001 µM was determined as 45%. The activation at 0.1 µM in data set [1] (100 nM compound) came out at 118%. Besides, in data set [2], the “Ratio 15/60 (plasma level 15 min / 60 min)” value turned out to be 3.94, the concentration at 15 min was 280 ng/mL and the concentration at 60 min was determined as 71 ng/mL.
In the case of `COC(=O)N[C@H]1CCN(c2ccc(F)c3c2CC(C)O3)C1` (stereo partly drawn) [Example 10, Methyl (3S)-1-(7-fluoro-2-methyl-2,3-dihydrobenzofuran-4-yl)pyrrolidin-3-ylcarbamate], the activation at 0.001 µM in data set [1] (1 nM compound) stood at 36%. In addition, the activation at 0.1 µM in data set [1] (100 nM compound) is 89%.
In the case of `CC1Cc2c(N3CC[C@H](NC(=O)C(F)(F)F)C3)ccc(F)c2O1` (stereo partly drawn) [Example 2, 2,2,2-trifluoro-N-((3S)-1-(7-fluoro-2-methyl-2,3-dihydrobenzofuran-4-yl)pyrrolidin-3-yl)acetamide], the activation at 0.001 µM in data set [1] (1 nM compound) amounted to 32%. Also, the activation at 0.1 µM in data set [1] (100 nM compound) is 79%.
`COc1ccc2[nH]cc(CCNC(C)=O)c2c1` [Melatonin, reference compound]: the “% MT1 at 1 nM (agonism percentage)” value in data set [1] (1 nM compound) amounted to 42%. In data set [1] (100 nM compound), the “% MT1 at 100 nM (agonism percentage)” value was 101%. Also, in data set [2], the “Ratio 15/60 (plasma level 15 min / 60 min)” value is given as 3.49, the concentration at 15 min is 255 ng/mL and the concentration at 60 min worked out at 73 ng/mL.
On to `CC(C)CC(=O)N[C@H]1CCN(c2cccc3c2CC(C)O3)C1` (stereo partly drawn) [Example 18, 3-methyl-N-((3S)-1-(2-methyl-2,3-dihydrobenzofuran-4-yl)pyrrolidin-3-yl)butanamide], for which the activation at 0.001 µM in data set [1] (1 nM compound) worked out at 28%. Besides, the activation at 0.1 µM in data set [1] (100 nM compound) was 82%.
On to `CC1Cc2c(cccc2N2CC[C@H](NC(=O)C(C)C)C2)O1` (stereo partly drawn) [Example 16, N-((3S)-1-(2-methyl-2,3-dihydrobenzofuran-4-yl)pyrrolidin-3-yl)isobutyramide], for which, in data set [1] (1 nM compound), the activation at 0.001 µM came out at 6%. Moreover, in data set [1] (100 nM compound), the activation at 0.1 µM was 76%.
`CCCC(=O)N[C@H]1CCN(c2ccc(F)c3c2CC(C)O3)C1` (stereo partly drawn) [Example 5, N-((3S)-1-(7-fluoro-2-methyl-2,3-dihydrobenzofuran-4-yl)pyrrolidin-3-yl)butyramide]: the activation at 0.001 µM in data set [1] (1 nM compound) stood at 32%. Further, in data set [1] (100 nM compound), the activation at 0.1 µM was 91%.
Regarding `CC(=O)N[C@H]1CCN(c2cccc3c2CC(C)O3)C1` (stereo partly drawn) [Example 13, N-((3S)-1-(2-methyl-2,3-dihydrobenzofuran-4-yl)pyrrolidin-3-yl)acetamide], the activation at 0.001 µM in data set [1] (1 nM compound) was 17%. Also, the activation at 0.1 µM in data set [1] (100 nM compound) came to 91%. Besides, in data set [2], the “Ratio 15/60 (plasma level 15 min / 60 min)” value stood at 2.29, the concentration at 15 min came to 433 ng/mL and the concentration at 60 min turned out to be 189 ng/mL.
Turning to `CCNC(=O)N[C@H]1CCN(c2ccc(F)c3c2CC(C)O3)C1` (stereo partly drawn) [Example 12, 1-Ethyl-3-((3S)-1-(7-fluoro-2-methyl-2,3-dihydrobenzofuran-4-yl)pyrrolidin-3-yl)urea], the activation at 0.001 µM in data set [1] (1 nM compound) is 18%. For the same compound, the activation at 0.1 µM in data set [1] (100 nM compound) stood at 90%.
For `CC1Cc2c(N3CC[C@H](NC(=O)C4CC4)C3)ccc(F)c2O1` (stereo partly drawn) [Example 7, N-((3S)-1-(7-fluoro-2-methyl-2,3-dihydrobenzofuran-4-yl)pyrrolidin-3-yl)cyclopropanecarboxamide], the activation at 0.001 µM in data set [1] (1 nM compound) came out at 22%. Besides, the activation at 0.1 µM in data set [1] (100 nM compound) worked out at 80%. Further, in data set [2], the “Ratio 15/60 (plasma level 15 min / 60 min)” value was found to be 0.58, the concentration at 15 min is 5.1 ng/mL and the concentration at 60 min came to 8.8 ng/mL.
For the compound `CCOC(=O)N[C@H]1CCN(c2ccc(F)c3c2CC(C)O3)C1` (stereo partly drawn) [Example 11, Ethyl (3S)-1-(7-fluoro-2-methyl-2,3-dihydrobenzofuran-4-yl)pyrrolidin-3-ylcarbamate], in data set [1] (1 nM compound), the activation at 0.001 µM was found to be 28%. Besides, the activation at 0.1 µM in data set [1] (100 nM compound) came out at 73%.
With `CC(=O)N[C@H]1CCN(c2ccc(F)c3c2CC(C)O3)C1` (stereo partly drawn) [Example 1, N-((3S)-1-(7-fluoro-2-methyl-2,3-dihydrobenzofuran-4-yl)pyrrolidin-3-yl)acetamide], in data set [1] (1 nM compound), the activation at 0.001 µM was determined as 19%. For the same compound, the activation at 0.1 µM in data set [1] (100 nM compound) is 73%. Also, in data set [2], the “Ratio 15/60 (plasma level 15 min / 60 min)” value is 1.03, the concentration at 15 min came to 56.8 ng/mL and the concentration at 60 min stood at 55.4 ng/mL.
Consider `CC1Cc2c(cccc2N2CC[C@H](NC(=O)C3CC3)C2)O1` (stereo partly drawn) [Example 17, N-((3S)-1-(2-methyl-2,3-dihydrobenzofuran-4-yl)pyrrolidin-3-yl)cyclopropanecarboxamide], for which, in data set [1] (1 nM compound), the activation at 0.001 µM came to 6%. Moreover, in data set [1] (100 nM compound), the activation at 0.1 µM was determined as 79%. In data set [2], the “Ratio 15/60 (plasma level 15 min / 60 min)” value is given as 0.47, the concentration at 15 min was 17 ng/mL and the concentration at 60 min came to 36 ng/mL.

Values taken from patent US20120088809A1, “1-(2-ALKYL-2,3-DIHYDRO-BENZOFURAN-4-YL)-PYRROLIDIN-3-YLAMINE ACYL COMPOUNDS” (priority 2009, published 2012).
